# Measurements: patent US12187723B2 (BRISTOL-MYERS SQUIBB COMPANY, priority 2019, dated 2025)
# Legend:
# human TLR7 = molecular target: T1, human TLR7 (Homo sapiens, UniProt Q9NYK1); assay: TLR7 inhibition reporter assay (HEK-Blue SEAP); assay type: cell-based; details: HEK-Blue cells overexpressing human TLR7, gardiquimod 7.5 μM, 22 hour incubation
# T1 construct: host or cells: HEK-Blue cells
# T1 sequence (Q9NYK1 27-1049): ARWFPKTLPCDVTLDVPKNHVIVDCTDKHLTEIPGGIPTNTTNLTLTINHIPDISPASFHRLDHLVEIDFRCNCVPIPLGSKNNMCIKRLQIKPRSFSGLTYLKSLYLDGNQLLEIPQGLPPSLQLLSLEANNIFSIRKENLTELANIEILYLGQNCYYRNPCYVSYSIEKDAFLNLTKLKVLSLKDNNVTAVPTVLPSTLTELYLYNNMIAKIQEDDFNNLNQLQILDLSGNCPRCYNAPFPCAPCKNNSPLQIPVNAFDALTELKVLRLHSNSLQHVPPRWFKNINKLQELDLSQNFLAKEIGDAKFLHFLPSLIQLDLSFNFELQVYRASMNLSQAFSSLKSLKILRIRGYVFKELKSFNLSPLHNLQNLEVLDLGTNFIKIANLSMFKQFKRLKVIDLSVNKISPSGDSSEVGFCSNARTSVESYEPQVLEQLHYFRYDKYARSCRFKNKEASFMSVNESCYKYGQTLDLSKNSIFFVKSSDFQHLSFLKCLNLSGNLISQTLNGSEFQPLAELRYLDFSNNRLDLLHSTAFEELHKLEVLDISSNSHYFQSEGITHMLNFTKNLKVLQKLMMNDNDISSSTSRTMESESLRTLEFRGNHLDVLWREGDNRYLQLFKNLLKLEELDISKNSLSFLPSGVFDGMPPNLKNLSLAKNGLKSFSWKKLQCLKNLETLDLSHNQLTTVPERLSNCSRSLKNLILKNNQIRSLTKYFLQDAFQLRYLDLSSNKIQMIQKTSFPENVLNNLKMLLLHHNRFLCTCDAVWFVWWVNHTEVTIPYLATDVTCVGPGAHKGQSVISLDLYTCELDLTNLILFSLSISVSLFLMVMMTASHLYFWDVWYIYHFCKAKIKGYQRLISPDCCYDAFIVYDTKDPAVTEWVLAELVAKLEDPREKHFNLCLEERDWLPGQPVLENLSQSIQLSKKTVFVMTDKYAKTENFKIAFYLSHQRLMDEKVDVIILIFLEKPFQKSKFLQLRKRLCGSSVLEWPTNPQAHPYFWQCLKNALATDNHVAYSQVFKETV
# Procedure, shortened: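 SEAP readout via HEK-Blue Detection medium after 22 h at 37 °C, 5% CO2 defines inhibition, normalized between agonist-plus-DMSO wells and a reference inhibitor. Compound dose range 0.05 nM–50 μM; TLR7 cells at 15,000/well (gardiquimod), TLR8 at 20,000/well (R848).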
# human TLR9 = molecular target: T2, human TLR9 (Homo sapiens, UniProt Q9NR96); assay: TLR9 inhibition reporter assay (HEK-Blue SEAP); assay type: cell-based; details: HEK-Blue cells overexpressing human TLR9, ODN2006 5 nM, 22 hour incubation
# T2 construct: host or cells: HEK-Blue cells
# T2 sequence (Q9NR96 26-1032): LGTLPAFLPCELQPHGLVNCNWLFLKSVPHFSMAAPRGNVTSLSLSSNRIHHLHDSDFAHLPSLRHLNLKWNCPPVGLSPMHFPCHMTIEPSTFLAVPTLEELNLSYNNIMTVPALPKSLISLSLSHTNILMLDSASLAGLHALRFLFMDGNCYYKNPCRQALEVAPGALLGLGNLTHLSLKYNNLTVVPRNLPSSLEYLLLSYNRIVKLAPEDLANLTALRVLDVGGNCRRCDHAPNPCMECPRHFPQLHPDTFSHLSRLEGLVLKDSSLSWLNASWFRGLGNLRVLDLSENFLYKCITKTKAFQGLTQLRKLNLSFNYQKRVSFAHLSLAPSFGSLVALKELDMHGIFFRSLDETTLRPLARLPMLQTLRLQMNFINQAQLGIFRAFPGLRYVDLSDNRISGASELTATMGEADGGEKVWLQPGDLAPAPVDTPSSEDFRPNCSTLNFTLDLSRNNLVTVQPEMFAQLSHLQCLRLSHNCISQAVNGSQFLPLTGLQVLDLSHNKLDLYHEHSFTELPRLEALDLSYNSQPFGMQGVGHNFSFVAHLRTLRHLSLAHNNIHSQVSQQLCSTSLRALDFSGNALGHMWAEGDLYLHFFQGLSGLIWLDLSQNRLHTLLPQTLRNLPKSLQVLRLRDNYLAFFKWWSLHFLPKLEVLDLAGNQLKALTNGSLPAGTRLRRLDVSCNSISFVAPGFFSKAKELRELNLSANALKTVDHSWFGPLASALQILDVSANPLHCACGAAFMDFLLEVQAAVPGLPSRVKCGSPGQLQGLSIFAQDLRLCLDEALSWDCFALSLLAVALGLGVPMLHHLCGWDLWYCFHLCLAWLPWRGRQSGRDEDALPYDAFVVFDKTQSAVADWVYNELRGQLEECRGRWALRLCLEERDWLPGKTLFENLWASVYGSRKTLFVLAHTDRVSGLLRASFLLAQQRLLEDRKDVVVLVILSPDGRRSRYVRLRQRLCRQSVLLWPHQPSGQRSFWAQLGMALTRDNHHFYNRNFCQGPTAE
# Procedure, shortened: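 HEK-Blue cells overexpressing human TLR7, TLR8 or TLR9 carry a SEAP reporter driven by NF-κB/AP-1 sites. Compounds (0.05 nM–50 μM) were preincubated 30 min at room temperature, then cells were stimulated with gardiquimod 7.5 μM (TLR7), R848 15.9 μM (TLR8) or ODN2006 5 nM (TLR9) for 22 h at 37 °C.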
SMILES,IC50 (human TLR7),IC50 (human TLR9)
"COc1cc(-c2ccc3c(c2)[nH]c(=O)n3C2CCN(C3CCOC3)CC2)cn2ncnc12 (stereo not shown) [Example 81, 5-(8-methoxy-[1,2,4]triazolo[1,5-a]pyridin-6-yl)-1-(1-(tetrahydrofuran-3-yl)piperidin-4-yl)-1,3-dihydro-2H-benzo[d]imidazol-2-one]",2640 nM,3.88 µM
"CCCN1CCC(n2c(=O)[nH]c3cc(-c4cc(OC)c5ncnn5c4)ccc32)CC1 [Example 76, 5-(8-methoxy-[1,2,4]triazolo[1,5-a]pyridin-6-yl)-1-(1-propylpiperidin-4-yl)-1,3-dihydro-2H-benzo[d]imidazol-2-one]",1480 nM,1.71 µM
"COc1cc(-c2ccc3c(c2)[nH]c(=O)n3C2CCN(CC3CC3)CC2)cn2ncnc12 [Example 79, 1-(1-(cyclopropylmethyl)piperidin-4-yl)-5-(8-methoxy-[1,2,4]triazolo[1,5-a]pyridin-6-yl)-1,3-dihydro-2H-benzo[d]imidazol-2-one]",> 3130 nM,3.9 µM
"Cc1cc2c(cc1-c1cc(C)c3ncnn3c1)[nH]c(=O)n2[C@@H]1CCCN(CC(C)C)C1 [Example 40, (R)-1-(1-isobutylpiperidin-3-yl)-6-methyl-5-(8-methyl-[1,2,4]triazolo[1,5-a]pyridin-6-yl)-1,3-dihydro-2H-benzo[d]imidazol-2-one]",14.8 nM,6.47 µM
"CCCN1CCC[C@@H](n2c(=O)[nH]c3cc(-c4cc(C)c5ncnn5c4)c(C)cc32)C1 [Example 42, (R)-6-methyl-5-(8-methyl-[1,2,4]triazolo[1,5-a]pyridin-6-yl)-1-(1-propylpiperidin-3-yl)-1,3-dihydro-2H-benzo[d]imidazol-2-one]",26.3 nM,10.5 µM
"COc1cc(-c2cc3[nH]c(=O)n([C@H]4CC[C@@H](NC(C)C)CC4)c3cc2C)cn2ncnc12 [Example 50, 1-((1s,4s)-4-(isopropylamino)cyclohexyl)-5-(8-methoxy-[1,2,4]triazolo[1,5-a]pyridin-6-yl)-6-methyl-1,3-dihydro-2H-benzo[d]imidazol-2-one]",38.5 nM,10.9 µM
"COc1cc(-c2cc3[nH]c(=O)n(C4CCN(CC(=O)N(C)C)CC4)c3cc2C)cn2ncnc12 [Example 86, 2-(4-(5-(8-methoxy-[1,2,4]triazolo[1,5-a]pyridin-6-yl)-6-methyl-2-oxo-2,3-dihydro-1H-benzo[d]imidazol-1-yl)piperidin-1-yl)-N,N-dimethylacetamide]",142 nM,4.93 µM
"COc1cc(-c2cc3[nH]c(=O)n([C@H]4CC[C@@H](NC5CCCC5)CC4)c3cc2C)cn2ncnc12 [Example 65, 1-((1s,4s)-4-(cyclopentylamino)cyclohexyl)-5-(8-methoxy-[1,2,4]triazolo[1,5-a]pyridin-6-yl)-6-methyl-1,3-dihydro-2H-benzo[d]imidazol-2-one]",10.5 nM,3.44 µM
"Cc1cc2c(cc1-c1cc(C)c3ncnn3c1)[nH]c(=O)n2[C@H]1CCCN(CC(N)=O)C1 [Example 92, (S)-2-(3-(6-methyl-5-(8-methyl-[1,2,4]triazolo[1,5-a]pyridin-6-yl)-2-oxo-2,3-dihydro-1H-benzo[d]imidazol-1-yl)piperidin-1-yl)acetamide]",820 nM,21.1 µM
"COc1cc(-c2cc3[nH]c(=O)n([C@H]4CC[C@@H](NC5CCC5)CC4)c3cc2C)cn2ncnc12 [Example 58, 1-((1s,4s)-4-(cyclobutylamino)cyclohexyl)-5-(8-methoxy-[1,2,4]triazolo[1,5-a]pyridin-6-yl)-6-methyl-1,3-dihydro-2H-benzo[d]imidazol-2-one]",16.2 nM,4.12 µM
"COc1cc(-c2cc3[nH]c(=O)n([C@@H]4CCCN(CC5CCOCC5)C4)c3cc2C)cn2ncnc12 [Example 57, (R)-5-(8-methoxy-[1,2,4]triazolo[1,5-a]pyridin-6-yl)-6-methyl-1-(1-((tetrahydro-2H-pyran-4-yl)methyl)piperidin-3-yl)-1,3-dihydro-2H-benzo[d]imidazol-2-one]",8.11 nM,5.94 µM
